# Experimental data taken from publication PMC5995905, “Confirmation of high-throughput screening data and novel mechanistic insights into VDR-xenobiotic interactions by orthogonal assays” (Scientific Reports, 2018).
# Values joined by “and” are separate entries in the source; they are usually repeats but may differ in a detail not shown here. Equal values may be shown once. “Also recorded” adds a separate entry of the source. Where a name gives a salt, the structure may show the parent alone. Read-outs that look alike come from different tables or passages of the source.
# Columns and labels:
# [1] = target: human VDR ligand-binding domain; design: method as in PMID 21543282; settings: agonist mode; Tox21 qHTS data set; * = range of values; cited from earlier work
# human VDR [2] = target: T1, human VDR (Homo sapiens, UniProt P11473); experiment: Transient transactivation assay (CYP24-Luc), agonist mode, HEK293T cells; settings: for Derived Efficacy (fold induction): top asymptote of Hill or Gain-Loss model, maximum response
# T1 sequence (P11473 1-427): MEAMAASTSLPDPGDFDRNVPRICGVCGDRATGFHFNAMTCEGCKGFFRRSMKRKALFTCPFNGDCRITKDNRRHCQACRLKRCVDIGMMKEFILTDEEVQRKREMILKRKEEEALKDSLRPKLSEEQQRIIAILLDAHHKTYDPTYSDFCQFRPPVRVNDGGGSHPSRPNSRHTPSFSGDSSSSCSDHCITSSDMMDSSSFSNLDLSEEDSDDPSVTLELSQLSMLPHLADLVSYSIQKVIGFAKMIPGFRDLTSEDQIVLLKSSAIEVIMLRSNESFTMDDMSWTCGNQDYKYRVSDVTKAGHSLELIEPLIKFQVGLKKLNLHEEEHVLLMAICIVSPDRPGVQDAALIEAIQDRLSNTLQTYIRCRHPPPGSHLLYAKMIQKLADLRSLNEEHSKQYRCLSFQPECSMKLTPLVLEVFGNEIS
# [3] = target: T2, VDR:RXR, VDR:SRC-1 and VDR:NCoR interactions (Homo sapiens, UniProt P11473); experiment: Mammalian 2-hybrid assay, summary in words of VDR coregulator interactions; assay type: cell-based
# T2 sequence (P11473 1-427): T1 sequence (P11473 1-427)
# human VDR [4] = target: T1, human VDR
# human VDR [5] = target: T1, human VDR; experiment: Transient transactivation assay (CYP24-Luc), antagonist mode with 3 nM 1,25D3, HEK293T cells; assay type: cell-based
# VDR:NCoR = target: T3, VDR:NCoR (Homo sapiens, UniProt P11473); experiment: Mammalian 2-hybrid assay, recruitment of corepressor NCoR by VDR, Cos7 cells
# T3 sequence (P11473 1-427): T1 sequence (P11473 1-427)
# [6] = target: human VDR ligand-binding domain; design: method as in PMID 21543282; settings: read-out: Tox21 IC 50, cited from earlier work
# VDR:SRC-1 = VDR:SRC-1 (Homo sapiens, UniProt P11473); experiment: Mammalian 2-hybrid assay, recruitment of coactivator SRC-1 by VDR, Cos7 cells; settings: agonists; -RXR (empty pSG5); percentage of vitamin D3; conc. in Fig 5: ergocalciferol 60, lithocholic acid 50, calcipotriol 0.05, ethylphenol compound 40, 9 aminoacridine 50, tamoxifen citrate 20 μM
# [7] = Derived AC50 (Transient transactivation assay), agonist mode, HEK293T cells, CYP24A1-Luc
# [8] = agonists, orthogonal transient transactivation assay, HEK293T cells
# [9] = Derived IC 50 (Transient transactivation assay)
# [10] = AC50 (μM), experimental AC50 as listed in Fig 4a, agonists
# [11] = read-out: Derived IC 50 (Transient transactivation assay)
smiles,measurement,setting,value
"C=C1CC[C@H](O)C/C1=C/C=C1\CCC[C@]2(C)[C@@H]([C@H](C)/C=C/[C@H](C)C(C)C)CC[C@@H]12 [Ergocalciferol, reference compound]",AC50,[1],4.28 to 9.02 µM
Cc1cc(=O)oc2cc(N(C)C)ccc12 [7-(Dimethylamino)-4-methylcoumarin],AC50,[1],2.88 to 21.5 µM
same,AC50,human VDR [2]; [7],0.793 µM
same,Activity,human VDR [2]; [8],Active
same,Derived Efficacy (fold induction),human VDR [2],17.3255 fold induction
"O=S(=O)(O)c1ccccc1C=Cc1ccc(-c2ccc(C=Cc3ccccc3S(=O)(=O)O)cc2)cc1.[Na].[Na] [Disodium 4,4′-bis(2-sulfostyryl) biphenyl]",pattern of VDR:coregulator interaction facilitated by the ligand,[3],did not facilitate VDR:RXR or VDR:SRC-1 interactions under any condition
same,Derived Efficacy (fold induction),human VDR [4],9.4578 fold induction
same,AC50,[1],18 µM
same,Activity,human VDR [2],Active
same,AC50,human VDR [2]; read-out: Derived AC50 (Transient transactivation assay),0.394 µM
"CC/C(=C(\c1ccccc1)c1ccc(OCCN(C)C)cc1)c1ccccc1 [Tamoxifen citrate, reference compound]",AC50,[1],33 to 56 µM
O=C1C(Cl)=C(Cl)C(=O)c2ccccc21 [Dichlone],AC50,human VDR [5],19.8 µM
same,Activity,human VDR [5],moderate to marked synergistic activity; also recorded: Active
same,Derived Efficacy (fold inhibition),human VDR [5],86.9798 fold inhibition
same,IC50,human VDR [5]; [9],0.24 µM and 0.243 µM
same,Activity,human VDR [2],very weak agonist activity
same,Fold Change (pMNCoR + EpSG5),VDR:NCoR,1.1
"O=S(=O)(O)c1ccc2ccc(S(=O)(=O)O)cc2c1 [2,7 Naphthalene disulfonic acid]",AC50,[1],14.5 µM
same,AC50,human VDR [2]; [7],13.8 µM
same,Activity,human VDR [2]; [8],Active
same,Derived Efficacy (fold induction),human VDR [2],14.1669 fold induction
"O=C(O)CCCc1ccc(N(CCCl)CCCl)cc1 [Chlorambucil, reference compound]",Activity,human VDR [5],Active
same,Derived Efficacy (fold inhibition),human VDR [5],68.5251 fold inhibition
same,IC50,human VDR [5]; [9],0.021 µM
same,IC50,[6],0.058 nM
same,Fold Change (pMNCoR + EpSG5),VDR:NCoR,0.9
"CCc1cc(Cc2cc(CC)cc(C(C)(C)C)c2O)c(O)c(C(C)(C)C)c1 [2,2′-methylenebis(6-tert-butyl-4-ethylphenol)]",AC50,[1],52.6 µM
same,AC50,human VDR [2]; [10],35.4 µM
same,AC50,human VDR [2]; [7],36.8 µM
same,Activity,human VDR [2]; [8],Active
same,Derived Efficacy (fold induction),human VDR [2],89.3748 fold induction
same,"% Induction, pMSRC-1NR + EpSG5",VDR:SRC-1,7.2%
"Nc1nc(N)c2nc(-c3ccccc3)c(N)nc2n1 [Triamterene, reference compound]",AC50,[1],5.3 to 42.1 µM
same,AC50,human VDR [2]; [10],12.2 µM
same,AC50,human VDR [2]; [7],3.07 µM
same,Activity,human VDR [2]; [8],Active
same,Derived Efficacy (fold induction),human VDR [2],14.7020 fold induction
same,"% Induction, pMSRC-1NR + EpSG5",VDR:SRC-1,0.9%
Nc1ccc2cc3ccc(N)cc3nc2c1 [Proflavine hydrochloride],Activity,"human VDR [5]; antagonists, transient transactivation assay in the presence of 3 nM 1,25D3",Active
same,AC50,"human VDR [5]; experimental AC50 as listed in Fig 4a, antagonists, read-out: AC50",0.668 µM
same,IC50,"human VDR [5]; inhibition of 3 nM 1,25D3-induced response, HEK293T cells, unit given in Fig 3 legend, read-out: Derived IC 50 (Transient transactivation assay)",0.555 µM
same,Derived Efficacy (fold inhibition),"human VDR [5]; top asymptote of Hill or Gain-Loss model, maximum response",68.3825 fold inhibition
same,IC50,"[6]; antagonist mode, Tox21 qHTS data set",3410 nM
[Au+].[C-]#N.[C-]#N.[K+] [Potassium dicyanoaurate],Activity,human VDR [5],Active
same,Derived Efficacy (fold inhibition),human VDR [5],76.1807 fold inhibition
same,IC50,human VDR [5]; [11],0.0985 µM
same,"pattern of change of 1,25D3 induced VDR:coregulator interaction",[3],selectively inhibited VDR:SRC-1 interactions only in the presence of full length wild type RXR
same,IC50,[6],91.2 nM
[OH-].c1cc[c]([Sn+]([c]2ccccc2)[c]2ccccc2)cc1 [Triphenyltin hydroxide],Activity,human VDR [5],Active
same,Derived Efficacy (fold inhibition),human VDR [5],89.3748 fold inhibition
same,IC50,human VDR [5]; [11],0.0454 µM
same,"pattern of change of 1,25D3 induced VDR:coregulator interaction",[3],consistently attenuate recruitment VDR:RXR and VDR:SRC-1 in both the presence and absence of co-expressed coregulators
same,IC50,[6],92.9 nM
c1csc(-c2ccc(-c3cccs3)s2)c1 [Alpha-Terthiophene],pattern of VDR:coregulator interaction facilitated by the ligand,[3],Interaction between VDR:RXR only in the absence of full length SRC-1
same,Derived Efficacy (fold induction),human VDR [4],19.9132 fold induction
same,AC50,[1],15.7 µM
same,AC50,human VDR [2]; [7],0.305 µM
same,Activity,human VDR [2]; [8],Active
"N#C/C(=C1/SCC(c2ccccc2Cl)S1)n1ccnc1 (centres unmarked) [Lanoconazole, reference compound]",AC50,[1],21.1 µM
